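Compound exposure: 48 hours, 5 concentrations, 96-well plates. At the TGI there is no net growth.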

Test systems include IGROV1 ovarian; MOLT-4 leukemia; CCRF-CEM leukemia; MDA-N; OVCAR-5 ovarian; CAKI-1 renal; U251 CNS; HOP-62 NSCLC; M14 melanoma; HOP-92 NSCLC; TK-10 renal; MDA-MB-435; COLO 205 colon; UACC-257 melanoma; RPMI-8226 leukemia; T-47D breast; BT-549 breast; OVCAR-4 ovarian; NCI-H522 lung.
What all share (assay): NCI tumour cell line growth inhibition, 48 h

For the molecule `O=c1[nH]c(N/N=C\C(=N/Nc2nc3ccccc3c(=O)[nH]2)C(O)C(O)C(O)CO)nc2ccccc12` (stereo not drawn), the TGI in the assay on IGROV1 ovarian, in the assay on MOLT-4 leukemia, with CCRF-CEM leukemia, in the assay with MDA-N, in the assay on OVCAR-5 ovarian and with CAKI-1 renal was over 100 µM in each case. The TGI in the assay on U251 CNS, in the assay with HOP-62 NSCLC, in the assay with M14 melanoma, in the assay on HOP-92 NSCLC, in the assay on TK-10 renal and in the assay with MDA-MB-435 was over 100 µM each time. Besides, the TGI with COLO 205 colon, in the assay on UACC-257 melanoma, in the assay with RPMI-8226 leukemia, in the assay on T-47D breast and in the assay on BT-549 breast was over 100 µM in each case.
Turning to `COc1ccccc1C(=O)NO`, the TGI in the assay on IGROV1 ovarian, with MOLT-4 leukemia, with CCRF-CEM leukemia, in the assay on OVCAR-4 ovarian, with MDA-N and with OVCAR-5 ovarian was over 100 µM in each case. For the same molecule, the TGI in the assay on CAKI-1 renal, in the assay with U251 CNS, in the assay on HOP-62 NSCLC, in the assay with M14 melanoma, in the assay on TK-10 renal and with NCI-H522 lung was over 100 µM in each case. In addition, the TGI in the assay with MDA-MB-435, in the assay with COLO 205 colon, in the assay with UACC-257 melanoma, in the assay with RPMI-8226 leukemia, with T-47D breast and in the assay with BT-549 breast was over 100 µM throughout.
`O=[N+]([O-])c1ccc(N/N=C2/CC3=C2CCCCCCCCCC3)c([N+](=O)[O-])c1`: the TGI in the assay on IGROV1 ovarian, in the assay on MOLT-4 leukemia, with CCRF-CEM leukemia, in the assay with OVCAR-4 ovarian, in the assay with MDA-N and in the assay on OVCAR-5 ovarian was over 100 µM each time. Also, the TGI in the assay with CAKI-1 renal, in the assay on U251 CNS, in the assay on HOP-62 NSCLC, in the assay with M14 melanoma, in the assay with TK-10 renal and in the assay with NCI-H522 lung was over 100 µM in each case. The TGI in the assay with MDA-MB-435, with COLO 205 colon, in the assay on UACC-257 melanoma, with RPMI-8226 leukemia, in the assay with T-47D breast and with BT-549 breast was over 100 µM throughout.
For `CCOC(=O)c1ccc(C(=O)n2ccnc2)[nH]1`, the TGI in the assay on IGROV1 ovarian, with MOLT-4 leukemia, with CCRF-CEM leukemia, in the assay with OVCAR-4 ovarian, with MDA-N and in the assay with OVCAR-5 ovarian was over 100 µM throughout. Besides, the TGI in the assay on CAKI-1 renal, with U251 CNS, in the assay with HOP-62 NSCLC, in the assay on M14 melanoma, with TK-10 renal and with NCI-H522 lung was over 100 µM throughout. Further, the TGI in the assay on MDA-MB-435, in the assay on COLO 205 colon, in the assay with UACC-257 melanoma, in the assay on RPMI-8226 leukemia, with T-47D breast and in the assay on BT-549 breast was over 100 µM throughout.
On to `CCN1c2cc(Br)cc3[nH]c(=O)n(c23)CCC1C` (stereo not drawn), for which the TGI with IGROV1 ovarian is 31.5 µM; in the assay with MOLT-4 leukemia it was 65.5 µM; with CCRF-CEM leukemia, over 100 µM; in the assay on OVCAR-4 ovarian it was 65.2 µM; in the assay on MDA-N, 19.2 µM; with OVCAR-5 ovarian, 49.9 µM. In addition, the TGI with CAKI-1 renal was 36 µM; in the assay on U251 CNS, 28.6 µM; in the assay on HOP-62 NSCLC it was 37.2 µM; in the assay with M14 melanoma it was 34.8 µM; with HOP-92 NSCLC, 9.25 µM; with TK-10 renal, 49.2 µM. Also, the TGI is 16.8 µM in the assay with MDA-MB-435; 31.3 µM in the assay with COLO 205 colon; 40.6 µM in the assay on UACC-257 melanoma; over 100 µM in the assay with RPMI-8226 leukemia; 59.9 µM in the assay on T-47D breast; 31.2 µM in the assay with BT-549 breast.
With `CCC1(CC)C(=O)N(C(=O)c2ccccc2)N(C(=O)c2ccc(Cl)cc2)C1=O`, the TGI in the assay on IGROV1 ovarian is over 75 µM; in the assay on MOLT-4 leukemia, 47.7 µM; in the assay on CCRF-CEM leukemia it was 51.3 µM; in the assay with OVCAR-4 ovarian, over 75 µM; in the assay on MDA-N, over 75 µM; with OVCAR-5 ovarian, over 75 µM. The TGI in the assay on CAKI-1 renal, in the assay with U251 CNS, with HOP-62 NSCLC, in the assay on M14 melanoma, in the assay with TK-10 renal and in the assay with NCI-H522 lung was over 75 µM in each case. Moreover, the TGI with MDA-MB-435, in the assay with COLO 205 colon, with UACC-257 melanoma, in the assay with RPMI-8226 leukemia, with T-47D breast and in the assay with BT-549 breast was over 75 µM throughout.
With `CC(=O)O[C@H]1CC[C@H]2[C@@H]3CCC4=CC(=O)C=C[C@]4(O)[C@H]3CC[C@]12C`, the TGI was over 100 µM with IGROV1 ovarian; 25.7 µM in the assay on MOLT-4 leukemia; 46.5 µM with CCRF-CEM leukemia; over 100 µM in the assay with OVCAR-4 ovarian; over 60.9 µM in the assay on MDA-N; over 100 µM in the assay with OVCAR-5 ovarian. Besides, the TGI in the assay with CAKI-1 renal is over 100 µM; with U251 CNS, over 100 µM; in the assay on HOP-62 NSCLC, over 100 µM; in the assay with M14 melanoma, over 100 µM; in the assay on HOP-92 NSCLC, 92.3 µM; with TK-10 renal, over 100 µM. Moreover, the TGI in the assay on MDA-MB-435 was 49.5 µM; with COLO 205 colon it was over 55.6 µM; in the assay on UACC-257 melanoma, over 81.9 µM; with RPMI-8226 leukemia, 44.3 µM; in the assay with T-47D breast, over 100 µM; with BT-549 breast, over 79.8 µM.
`O=c1cc(NNCc2ccccc2)[nH]c(=O)[nH]1`: the TGI in the assay on IGROV1 ovarian, in the assay with MOLT-4 leukemia, in the assay with CCRF-CEM leukemia, with OVCAR-4 ovarian, in the assay with MDA-N and in the assay on OVCAR-5 ovarian was over 100 µM throughout. Further, the TGI in the assay with CAKI-1 renal, in the assay with U251 CNS, with HOP-62 NSCLC, with M14 melanoma, with HOP-92 NSCLC and in the assay with TK-10 renal was over 100 µM throughout. For the same molecule, the TGI in the assay with MDA-MB-435 was over 100 µM; with COLO 205 colon it was over 100 µM; with UACC-257 melanoma, over 100 µM; with RPMI-8226 leukemia, over 100 µM; with T-47D breast, 67 µM; in the assay with BT-549 breast it was over 100 µM.

These data come from PubChem BioAssay (NCI).
